Measured values from patent US7074789B2, “Kinase inhibitors” (Amgen Inc., priority 1999, dated 2006).
Where “and” joins values, the source holds several entries; their conditions need not be identical. Identical values can stand only once. Like-named read-outs stand apart in the source and are kept apart here.

Key:
Type in all cases: biochemical
[1] = target: T1, Lck (Homo sapiens, UniProt P06239); test: Kinase inhibition assay (33P transfer), Lck; details: read-out: Lck-1
T1 construct: Kinases are expressed as either kinase domains or full length constructs; made in house
In short: (§1)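 Each kinase, expressed as a GST- or polyHis-tagged domain or full-length protein, phosphorylated plate-attached poly(Glu,Tyr) 4:1 or poly(Arg,Ser) 3:1 using 33P-ATP. Bound radioactivity was measured by scintillation after a 0.5% phosphoric acid wash.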

[2] = target: T2, Lyn (Homo sapiens, UniProt P07948); test: Kinase inhibition assay (33P transfer), Lyn; details: Table 6, Lyn-1 kinase inhibition class
T2 construct: Kinases are expressed as either kinase domains or full length constructs; made in house
T2 sequence (P07948 whole entry, species assumed, the tested form may be a part): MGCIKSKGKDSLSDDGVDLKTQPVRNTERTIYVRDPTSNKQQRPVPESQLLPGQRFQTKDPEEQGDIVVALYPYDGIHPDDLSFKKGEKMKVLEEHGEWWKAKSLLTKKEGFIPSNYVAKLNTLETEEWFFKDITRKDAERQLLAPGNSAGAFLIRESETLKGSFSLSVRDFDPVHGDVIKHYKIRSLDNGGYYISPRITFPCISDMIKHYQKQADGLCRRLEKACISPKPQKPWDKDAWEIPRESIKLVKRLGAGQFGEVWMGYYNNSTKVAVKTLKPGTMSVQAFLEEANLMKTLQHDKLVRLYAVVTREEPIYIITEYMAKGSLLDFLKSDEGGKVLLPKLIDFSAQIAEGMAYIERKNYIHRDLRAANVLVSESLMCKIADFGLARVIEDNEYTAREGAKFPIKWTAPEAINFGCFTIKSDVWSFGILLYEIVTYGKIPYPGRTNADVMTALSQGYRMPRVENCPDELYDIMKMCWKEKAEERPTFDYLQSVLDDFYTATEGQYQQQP
In short: (§2)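 Read-out: scintillation counts of 33P moved from ATP onto synthetic peptide polymer coated on the well surface, after washing with 0.5% phosphoric acid. Enzymes were tagged (GST or polyHistidine) and came from bacterial or insect-cell expression. IC50 marks 50% loss of incorporated label.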

[3] = target: T3, Src (Homo sapiens, UniProt P12931); test: Kinase inhibition assay (33P transfer), Src; details: Table 6, Src-1 kinase inhibition class
T3 construct: Kinases are expressed as either kinase domains or full length constructs; made in house
T3 sequence (P12931 whole entry, species assumed, the tested form may be a part): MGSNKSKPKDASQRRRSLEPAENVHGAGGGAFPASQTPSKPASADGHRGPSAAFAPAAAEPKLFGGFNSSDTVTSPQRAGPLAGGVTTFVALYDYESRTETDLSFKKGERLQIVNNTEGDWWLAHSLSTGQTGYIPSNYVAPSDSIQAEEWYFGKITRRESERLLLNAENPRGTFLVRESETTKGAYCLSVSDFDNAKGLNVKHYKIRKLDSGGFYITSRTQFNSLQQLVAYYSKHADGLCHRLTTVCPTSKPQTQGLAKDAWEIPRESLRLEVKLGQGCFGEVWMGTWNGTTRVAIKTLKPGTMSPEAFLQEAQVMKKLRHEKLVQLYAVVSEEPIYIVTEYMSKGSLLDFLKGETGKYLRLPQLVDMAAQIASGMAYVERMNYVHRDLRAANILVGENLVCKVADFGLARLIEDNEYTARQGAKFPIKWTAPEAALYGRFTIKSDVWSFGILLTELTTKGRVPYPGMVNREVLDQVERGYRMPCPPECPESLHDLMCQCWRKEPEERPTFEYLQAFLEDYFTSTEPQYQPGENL
In short: as §2

[4] = target: T4, Fyn (Homo sapiens, UniProt P06241); test: Kinase inhibition assay (33P transfer), Fyn; details: read-out: Fyn-1
T4 construct: Kinases are expressed as either kinase domains or full length constructs; made in house
In short: as §2

[5] = target: T5, Zap-70 (Homo sapiens, UniProt P43403); test: Kinase inhibition assay (33P transfer), Zap-70; details: read-out: Zap-1
T5 construct: Kinases are expressed as either kinase domains or full length constructs; made in house
T5 sequence (P43403 1-619): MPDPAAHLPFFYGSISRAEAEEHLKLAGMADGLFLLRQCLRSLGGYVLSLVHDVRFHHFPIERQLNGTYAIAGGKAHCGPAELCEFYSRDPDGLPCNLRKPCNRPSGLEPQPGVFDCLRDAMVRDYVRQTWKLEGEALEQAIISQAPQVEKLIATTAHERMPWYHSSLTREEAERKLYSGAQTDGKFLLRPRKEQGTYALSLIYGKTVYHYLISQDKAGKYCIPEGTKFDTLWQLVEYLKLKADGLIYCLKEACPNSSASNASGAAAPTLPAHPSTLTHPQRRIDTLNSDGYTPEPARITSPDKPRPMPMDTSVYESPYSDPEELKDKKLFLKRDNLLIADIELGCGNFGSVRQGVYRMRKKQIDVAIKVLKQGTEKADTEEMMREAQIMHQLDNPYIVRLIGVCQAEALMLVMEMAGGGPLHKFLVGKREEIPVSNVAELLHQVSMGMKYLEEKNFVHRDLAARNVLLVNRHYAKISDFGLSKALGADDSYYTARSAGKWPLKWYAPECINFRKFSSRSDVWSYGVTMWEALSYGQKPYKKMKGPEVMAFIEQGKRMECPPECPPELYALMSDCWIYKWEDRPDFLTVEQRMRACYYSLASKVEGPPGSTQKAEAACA
In short: as §1

[6] = target: T6, Itk (Homo sapiens, UniProt Q08881); test: Kinase inhibition assay (33P transfer), Itk; details: read-out: Itk-1
T6 construct: Kinases are expressed as either kinase domains or full length constructs; made in house
T6 sequence (Q08881 1-620): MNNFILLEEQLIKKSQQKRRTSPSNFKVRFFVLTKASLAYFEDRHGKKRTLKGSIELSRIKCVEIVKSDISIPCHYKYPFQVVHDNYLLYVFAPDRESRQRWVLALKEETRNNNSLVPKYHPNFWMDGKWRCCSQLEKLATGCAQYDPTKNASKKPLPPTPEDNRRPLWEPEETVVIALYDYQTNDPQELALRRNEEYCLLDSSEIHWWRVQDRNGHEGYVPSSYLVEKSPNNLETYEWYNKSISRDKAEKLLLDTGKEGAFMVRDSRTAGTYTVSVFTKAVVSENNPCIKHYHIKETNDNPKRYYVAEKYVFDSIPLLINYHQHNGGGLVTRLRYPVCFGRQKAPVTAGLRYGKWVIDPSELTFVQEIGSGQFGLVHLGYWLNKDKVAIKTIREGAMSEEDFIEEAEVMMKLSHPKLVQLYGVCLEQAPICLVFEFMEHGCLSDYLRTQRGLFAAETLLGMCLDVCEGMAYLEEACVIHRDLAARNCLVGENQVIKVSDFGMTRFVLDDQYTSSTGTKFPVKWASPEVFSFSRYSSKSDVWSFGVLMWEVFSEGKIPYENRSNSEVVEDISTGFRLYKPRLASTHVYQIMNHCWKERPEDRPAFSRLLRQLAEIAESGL
In short: as §2

[7] = target: T7, EGFR (Homo sapiens, UniProt P00533); test: Kinase inhibition assay (33P transfer), EGFR; details: Table 2, kinase inhibition class; read-out: EGFR-1
T7 construct: Kinases are expressed as either kinase domains or full length constructs; made in house
In short: as §2

[8] = target: T8, ErbB2 (Homo sapiens, UniProt P04626); test: Kinase inhibition assay (33P transfer), ErbB2; details: read-out: ErbB2-2
T8 construct: Kinases are expressed as either kinase domains or full length constructs; made in house
In short: as §2

[9] = target: T9, Kdr (Homo sapiens, UniProt P35968); test: Kinase inhibition assay (33P transfer), Kdr; details: read-out: KDR-1
T9 construct: Kinases are expressed as either kinase domains or full length constructs; made in house
In short: as §1

[10] = target: T10, Flt-1 (Homo sapiens, UniProt P17948); test: Kinase inhibition assay (33P transfer), Flt-1
T10 construct: Kinases are expressed as either kinase domains or full length constructs; made in house
In short: as §2

[11] = target: T11, c-Met (Homo sapiens, UniProt P08581); test: Kinase inhibition assay (33P transfer), c-Met; details: Table 2, kinase inhibition class; read-out: Met-1
T11 construct: Kinases are expressed as either kinase domains or full length constructs; made in house
T11 sequence (P08581 25-1390): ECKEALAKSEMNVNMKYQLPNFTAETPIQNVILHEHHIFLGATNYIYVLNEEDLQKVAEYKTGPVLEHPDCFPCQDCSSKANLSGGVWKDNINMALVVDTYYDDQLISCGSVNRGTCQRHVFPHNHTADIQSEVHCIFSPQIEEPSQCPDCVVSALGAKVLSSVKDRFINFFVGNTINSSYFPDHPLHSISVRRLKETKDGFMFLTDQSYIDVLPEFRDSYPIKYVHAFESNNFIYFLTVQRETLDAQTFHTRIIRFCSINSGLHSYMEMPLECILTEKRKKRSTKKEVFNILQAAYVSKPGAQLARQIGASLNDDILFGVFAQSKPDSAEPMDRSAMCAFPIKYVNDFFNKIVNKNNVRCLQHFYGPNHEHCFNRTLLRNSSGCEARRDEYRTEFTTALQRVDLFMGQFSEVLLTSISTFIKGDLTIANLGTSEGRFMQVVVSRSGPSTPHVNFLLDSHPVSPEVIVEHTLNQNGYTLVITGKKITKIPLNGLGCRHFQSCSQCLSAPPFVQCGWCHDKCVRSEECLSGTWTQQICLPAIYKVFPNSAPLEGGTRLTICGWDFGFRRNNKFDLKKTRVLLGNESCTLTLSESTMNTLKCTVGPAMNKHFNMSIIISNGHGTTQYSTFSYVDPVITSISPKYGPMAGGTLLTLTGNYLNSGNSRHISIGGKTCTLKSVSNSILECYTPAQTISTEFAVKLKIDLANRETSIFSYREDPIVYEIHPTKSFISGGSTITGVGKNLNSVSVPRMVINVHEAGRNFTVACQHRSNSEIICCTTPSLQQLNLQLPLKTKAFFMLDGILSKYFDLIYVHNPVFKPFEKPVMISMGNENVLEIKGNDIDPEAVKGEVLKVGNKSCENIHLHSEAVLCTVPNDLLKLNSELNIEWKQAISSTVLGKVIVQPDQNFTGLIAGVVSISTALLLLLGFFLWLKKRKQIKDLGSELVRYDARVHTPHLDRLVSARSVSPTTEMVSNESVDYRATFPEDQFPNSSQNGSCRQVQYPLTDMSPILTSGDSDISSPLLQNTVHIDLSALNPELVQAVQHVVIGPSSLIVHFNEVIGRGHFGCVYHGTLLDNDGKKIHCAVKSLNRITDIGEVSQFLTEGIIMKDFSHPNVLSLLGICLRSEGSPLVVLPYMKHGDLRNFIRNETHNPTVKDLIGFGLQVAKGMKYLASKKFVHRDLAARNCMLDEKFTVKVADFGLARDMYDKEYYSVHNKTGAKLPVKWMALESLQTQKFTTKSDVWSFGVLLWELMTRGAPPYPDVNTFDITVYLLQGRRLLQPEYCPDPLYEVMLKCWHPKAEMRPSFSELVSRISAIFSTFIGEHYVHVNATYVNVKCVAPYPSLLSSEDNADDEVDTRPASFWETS
In short: as §2

[12] = target: T12, AKT (Homo sapiens, UniProt Q9Y243); test: Kinase inhibition assay (33P transfer), AKT; details: Table 2, kinase inhibition class; read-out: AKT3-1
T12 construct: Kinases are expressed as either kinase domains or full length constructs; made in house
In short: as §1

[13] = target: T13, IGFR-1 (Homo sapiens, UniProt P08069); test: Kinase inhibition assay, IGFR-1 (Table 2); details: Table 2, kinase inhibition class
T13 construct: Kinases are expressed as either kinase domains or full length constructs; made in house
T13 sequence (P08069 31-1367): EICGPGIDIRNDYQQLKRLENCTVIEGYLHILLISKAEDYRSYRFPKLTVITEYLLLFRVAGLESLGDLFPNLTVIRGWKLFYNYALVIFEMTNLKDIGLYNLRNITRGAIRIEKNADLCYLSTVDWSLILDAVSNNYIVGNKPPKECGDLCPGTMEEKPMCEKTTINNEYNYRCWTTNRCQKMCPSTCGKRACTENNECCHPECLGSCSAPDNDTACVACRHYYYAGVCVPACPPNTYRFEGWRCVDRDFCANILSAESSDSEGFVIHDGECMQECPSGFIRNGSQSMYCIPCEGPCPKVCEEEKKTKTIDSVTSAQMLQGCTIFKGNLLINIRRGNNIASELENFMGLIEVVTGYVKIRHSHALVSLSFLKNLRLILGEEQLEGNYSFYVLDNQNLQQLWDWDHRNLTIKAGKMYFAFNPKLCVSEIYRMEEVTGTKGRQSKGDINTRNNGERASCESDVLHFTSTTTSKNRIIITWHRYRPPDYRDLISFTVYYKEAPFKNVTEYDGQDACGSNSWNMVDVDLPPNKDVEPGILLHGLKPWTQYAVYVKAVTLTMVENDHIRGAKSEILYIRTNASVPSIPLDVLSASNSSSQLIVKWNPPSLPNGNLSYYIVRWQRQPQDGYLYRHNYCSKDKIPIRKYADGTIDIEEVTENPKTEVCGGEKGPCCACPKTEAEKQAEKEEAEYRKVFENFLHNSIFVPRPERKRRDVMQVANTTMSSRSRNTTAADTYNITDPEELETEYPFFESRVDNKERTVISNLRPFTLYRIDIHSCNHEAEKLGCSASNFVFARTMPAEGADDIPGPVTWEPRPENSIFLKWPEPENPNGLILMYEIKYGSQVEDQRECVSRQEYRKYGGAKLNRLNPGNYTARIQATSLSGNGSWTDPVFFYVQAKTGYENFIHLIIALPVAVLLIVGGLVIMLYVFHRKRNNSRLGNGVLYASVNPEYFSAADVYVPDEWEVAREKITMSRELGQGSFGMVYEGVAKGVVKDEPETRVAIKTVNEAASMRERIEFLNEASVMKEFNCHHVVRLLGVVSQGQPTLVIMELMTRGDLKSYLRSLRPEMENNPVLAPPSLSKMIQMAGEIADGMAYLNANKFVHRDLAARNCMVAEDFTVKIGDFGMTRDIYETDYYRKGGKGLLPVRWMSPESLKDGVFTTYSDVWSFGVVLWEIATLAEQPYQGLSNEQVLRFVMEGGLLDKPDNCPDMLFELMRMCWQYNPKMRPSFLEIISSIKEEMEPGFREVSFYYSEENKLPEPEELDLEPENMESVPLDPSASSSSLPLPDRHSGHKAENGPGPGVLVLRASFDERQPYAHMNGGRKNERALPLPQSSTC

[14] = target: T14, PDGFRB (Homo sapiens, UniProt P09619); test: Kinase inhibition assay (33P transfer), PDGFRB; details: read-out: PDGFRB-1
T14 construct: Kinases are expressed as either kinase domains or full length constructs; made in house

[15] = target: T15, Hck-1 (Homo sapiens, UniProt P08631); test: Kinase inhibition assay (33P transfer), Hck; details: Table 6, Hck-1 kinase inhibition class
T15 construct: Kinases are expressed as either kinase domains or full length constructs; made in house
T15 sequence (P08631 whole entry, the tested form may be a part): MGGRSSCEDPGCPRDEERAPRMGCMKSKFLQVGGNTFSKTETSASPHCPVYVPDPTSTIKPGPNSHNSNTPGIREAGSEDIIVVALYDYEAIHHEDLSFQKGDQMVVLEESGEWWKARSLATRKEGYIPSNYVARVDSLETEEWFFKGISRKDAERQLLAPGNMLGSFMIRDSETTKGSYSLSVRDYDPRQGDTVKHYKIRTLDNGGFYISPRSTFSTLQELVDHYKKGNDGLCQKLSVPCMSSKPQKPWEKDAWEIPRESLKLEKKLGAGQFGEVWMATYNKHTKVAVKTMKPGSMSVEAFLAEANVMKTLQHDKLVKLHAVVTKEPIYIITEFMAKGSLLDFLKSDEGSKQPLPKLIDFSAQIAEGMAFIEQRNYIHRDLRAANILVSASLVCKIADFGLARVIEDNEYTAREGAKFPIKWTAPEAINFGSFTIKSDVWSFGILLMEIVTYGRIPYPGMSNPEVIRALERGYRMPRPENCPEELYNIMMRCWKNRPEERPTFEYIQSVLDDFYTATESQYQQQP

[16] = target: T16, ErbB4 (Homo sapiens, UniProt Q15303); test: Kinase inhibition assay (33P transfer), ErbB4; details: read-out: ErbB4-1
T16 construct: Kinases are expressed as either kinase domains or full length constructs; made in house

[17] = target: T17, Ret-1 (Homo sapiens, UniProt P07949); test: Kinase inhibition assay (33P transfer), Ret; details: Table 6, Ret-1 kinase inhibition class
T17 construct: Kinases are expressed as either kinase domains or full length constructs; made in house

[18] = target: T18, FGFR1 (Homo sapiens, UniProt P11362); test: Kinase inhibition assay (33P transfer), FGFR1; details: read-out: FGFR1-1
T18 construct: Kinases are expressed as either kinase domains or full length constructs; made in house
T18 sequence (P11362 22-822, species assumed): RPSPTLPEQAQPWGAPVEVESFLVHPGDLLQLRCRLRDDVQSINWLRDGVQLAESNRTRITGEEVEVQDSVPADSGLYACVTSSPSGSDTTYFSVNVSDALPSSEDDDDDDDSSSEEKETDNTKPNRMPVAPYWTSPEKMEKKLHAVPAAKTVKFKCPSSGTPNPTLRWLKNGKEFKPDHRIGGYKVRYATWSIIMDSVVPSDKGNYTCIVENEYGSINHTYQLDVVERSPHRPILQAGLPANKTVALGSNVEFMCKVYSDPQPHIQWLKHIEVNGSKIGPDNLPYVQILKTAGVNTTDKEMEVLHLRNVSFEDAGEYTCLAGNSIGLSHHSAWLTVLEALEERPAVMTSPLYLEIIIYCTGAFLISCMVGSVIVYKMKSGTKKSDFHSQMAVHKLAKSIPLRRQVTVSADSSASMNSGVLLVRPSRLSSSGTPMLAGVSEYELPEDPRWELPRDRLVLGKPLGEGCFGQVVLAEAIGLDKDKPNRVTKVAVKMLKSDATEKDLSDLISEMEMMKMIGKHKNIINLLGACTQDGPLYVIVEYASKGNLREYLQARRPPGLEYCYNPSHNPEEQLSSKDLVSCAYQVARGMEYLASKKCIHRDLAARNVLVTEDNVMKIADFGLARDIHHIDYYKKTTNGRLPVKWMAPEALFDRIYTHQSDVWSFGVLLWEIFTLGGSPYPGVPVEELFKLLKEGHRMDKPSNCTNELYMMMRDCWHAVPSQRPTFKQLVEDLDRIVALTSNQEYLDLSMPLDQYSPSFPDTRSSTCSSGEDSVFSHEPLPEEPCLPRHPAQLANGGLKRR

[19] = target: T14, PDGFRB; test: Kinase inhibition assay (33P transfer), PDGFRB; details: read-out: PDGFRB-1; remark: listed apart in the source

COc1cc(Nc2ncnc(-n3c(NCc4ccc(Cl)cc4F)nc4ccccc43)n2)cc(OC)c1OC [Compound 606]
IC50 [1]: 4.48 to 6.53 µM | IC50 [2]: 4.48 to 6.53 µM | IC50 [3]: > 8.4 µM | IC50 [4]: > 8.4 µM | IC50 [5]: > 8.4 µM | IC50 [6]: > 8.4 µM | IC50 [7]: > 8.4 µM | IC50 [8]: 6.53 to 8.4 µM | IC50 [9]: < 0.746 µM | IC50 [10]: 4.48 to 6.53 µM | IC50 [11]: > 8.4 µM | IC50 [12]: > 8.4 µM | IC50 [13]: 6.53 to 8.4 µM | IC50 [14]: 0.746 to 4.48 µM | IC50 [15]: > 8.4 µM | IC50 [16]: > 8.4 µM | IC50 [17]: 0.746 to 4.48 µM | IC50 [18]: 0.746 to 4.48 µM

COc1cc(Nc2ncnc(-n3c(NC(C)c4ccc(F)cc4)nc4ccccc43)n2)cc(OC)c1OC (stereo not drawn) [Compound 605]
IC50 [1]: 0.776 to 4.66 µM | IC50 [2]: 0.776 to 4.66 µM | IC50 [3]: > 8.73 µM | IC50 [4]: > 8.73 µM | IC50 [5]: > 8.73 µM | IC50 [6]: > 8.73 µM | IC50 [7]: > 8.73 µM | IC50 [8]: > 8.73 µM | IC50 [9]: < 0.776 µM | IC50 [10]: 0.776 to 4.66 µM | IC50 [11]: > 8.73 µM | IC50 [12]: > 8.73 µM | IC50 [13]: > 8.73 µM | IC50 [14]: < 0.776 µM | IC50 [15]: > 8.73 µM | IC50 [16]: > 8.73 µM | IC50 [17]: < 0.776 µM | IC50 [18]: < 0.776 µM

COc1cc(Nc2ncnc(N(C)c3cccc4ccccc34)n2)cc(OC)c1OC [Compound 607]
IC50 [1]: < 0.958 µM | IC50 [2]: < 0.958 µM | IC50 [3]: 0.958 to 5.75 µM | IC50 [4]: 0.958 to 5.75 µM | IC50 [5]: > 10.8 µM | IC50 [6]: > 10.8 µM | IC50 [7]: < 0.958 µM | IC50 [8]: 0.958 to 5.75 µM | IC50 [9]: < 0.958 µM | IC50 [10]: 8.38 to 10.8 µM | IC50 [11]: > 10.8 µM | IC50 [12]: > 10.8 µM | IC50 [13]: > 10.8 µM | IC50 [14]: 0.958 to 5.75 µM | IC50 [15]: 0.958 to 5.75 µM | IC50 [16]: 0.958 to 5.75 µM | IC50 [17]: < 0.958 µM | IC50 [18]: 0.958 to 5.75 µM

Cc1cccc(Nc2ncnc(N3CCCc4ccc(C(F)(F)F)cc43)n2)c1 [Compound 582]
IC50 [1]: 6.23 to 9.08 µM | IC50 [2]: > 11.7 µM | IC50 [3]: > 11.7 µM | IC50 [4]: > 11.7 µM | IC50 [5]: > 11.7 µM | IC50 [6]: > 11.7 µM | IC50 [7]: < 1.04 µM | IC50 [8]: 1.04 to 6.23 µM | IC50 [9]: 6.23 to 9.08 µM | IC50 [10]: > 11.7 µM | IC50 [11]: 9.08 to 11.7 µM | IC50 [12]: > 11.7 µM | IC50 [13]: > 11.7 µM | IC50 [19]: > 11.7 µM | IC50 [16]: > 11.7 µM | IC50 [17]: 6.23 to 9.08 µM | IC50 [18]: 1.04 to 6.23 µM

COc1cc(Nc2ncnc(-n3c(NC4c5ccccc5CC4O)nc4ccccc43)n2)cc(OC)c1OC (stereo not drawn) [Compound 579]
IC50 [1]: 0.761 to 4.57 µM | IC50 [2]: 4.57 to 6.66 µM | IC50 [3]: > 8.56 µM | IC50 [4]: > 8.56 µM | IC50 [5]: > 8.56 µM | IC50 [6]: > 8.56 µM | IC50 [8]: 4.57 to 6.66 µM and < 0.761 µM | IC50 [9]: 0.761 to 4.57 µM and < 0.761 µM | IC50 [10]: 0.761 to 4.57 µM | IC50 [11]: > 8.56 µM | IC50 [12]: > 8.56 µM | IC50 [13]: > 8.56 µM | IC50 [19]: > 8.56 µM | IC50 [16]: < 0.761 µM | IC50 [17]: < 0.761 µM | IC50 [18]: 0.761 to 4.57 µM
